Our source for the IC50 values is US11866430B2, “Naphthyridinone compounds useful as T cell activators” (priority 2018, dated 2024).

Experiment [1] deals with T1, human DGKζ (Homo sapiens (Human), UniProt Q13574). Description: DGKζ assay (detergent/lipid micelle substrate). In kind it is biochemical. Put shortly: (§1)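 Enzymes were baculovirus/Sf9 full-length human DGKα or DGKζ with His tag. The substrate was PS/DAG in octyl glucoside micelles, in MOPS pH 7.5 buffer with NaCl, MgCl2, CaCl2 and DTT.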
The test system of experiment [2] is Jurkat AP1-luciferase Reporter. Description: DGK AP1-Reporter Assay. The conditions noted are these: Homo sapiens, Jurkat, read-out: API-Luciferase Reporter IC50, Table 3. In kind it is cell-based. As to the method:
The Jurkat AP1-luciferase Reporter was generated using the Cignal Lenti AP1 Reporter (luc) Kit from SABiosciences (CLS-011L).
The sample size was 30 nl per well; and one destination plate per source plate. The cell suspensions were prepared by transferring 40 mL cells (2×20 mL) to clean 50 mL conical tubes. The cells were concentrated by centrifugation (1200 rpm; 5 mins; ambient temperature). […] The cell plates were incubated for 20 minutes at 37° C., and 5% CO2.
During the incubation, anti-CD3 antibody (αCD3) solutions were prepared by mixing 3 μl αCD3 (1.3 mg/mL) with 10 mL medium [final conc=0.4 μg/mL]. Next, 1.5 μl αCD3 (1.3 mg/mL) was mixed with 0.5 mL medium [final conc=4 μg/mL]. After 20 minutes, 10 μl medium was added to all wells in column 1, wells A to M, and 10 μl αCD3 (4 μg/mL) per well was added in column 1, rows N to P for reference. Then using a multi-channel pipette, 10 μl αCD3 (0.4 μg/mL) per well was added. The αCD3 stimulated +/− compound-treated cells were incubated at 37° C., 5% CO2 for 6 hours.
During this incubation period. Steady-Glo (Promega E2520) reagent was slowly thawed on to ambient temperature. Next, 20 μl Steady-Glo reagent per well was added using a multi-drop Combi-dispenser. Bubbles were removed by centrifugation (2000 rpm, ambient temperature, 10 sees). The cells were incubated at room temperature for 5 minutes. Samples were characterized by measuring the Relative Light Units (RLU) with an using Envision Plate Reader Instrument on a luminescence protocol.
A general note: A reporter such as luciferase makes a cellular process visible.

The target in experiment [3] is T2, human DGKα (Homo sapiens (Human), UniProt P23743). Description: biochemical. To be noted: detergent/lipid micelle substrate; read-out: DGKα IC50. Put shortly: as §1
The target of experiment [4] is T1, human DGKζ. Description: DGKζ LIPGLO assay (extruded liposome substrate). In kind it is biochemical. The method in brief: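 Recombinant DGKζ (Sf9-expressed, Ni/SEC/SP-purified) preincubated 10 min with extruded 100 nm PC/DAG/PS liposomes in 50 mM MOPS pH 7.5, 100 mM NaCl, 10 mM MgCl2, 1 μM CaCl2, 1 mM DTT. Started with 300 uM ATP solution (stock, pre-addition); 1 hr reaction. ADP-Glo luminescence; IC50 from 11 concentrations.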

Experiment [5] has as its target T2, human DGKα. Description: DGKα LIPGLO assay (extruded liposome substrate). In kind it is biochemical. The method in brief:
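Human full-length DGKα, His-tagged and produced in Sf9 cells, assayed at 20 nM (4× stock) on extruded liposomes of PS, 0.25 mM DAG and 2.75 mM PC, preincubated 10 min. Reaction started with 300 μM ATP (stock) and ran 1 h in MOPS pH 7.5/MgCl2/CaCl2/DTT buffer.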

Experiment [6] has as its system pre-activated CD4 T cells and Raji cells. Description: Raji CD4 T Cell IL2 Assay. The format is cell-based.
The mark [7] stands for this setting: detergent/lipid micelle substrate, read-out: DGKζ IC50.
Where [8] appears, read: extruded liposome substrate, read-out: DGKζ LIPGLO IC50.

Read-outs that look alike come from different tables or passages of the source. A value given as a limit tells only on which side of the number the result lay.

T1 sequence (Q13574 other isoform, or with tags, fused parts or gaps): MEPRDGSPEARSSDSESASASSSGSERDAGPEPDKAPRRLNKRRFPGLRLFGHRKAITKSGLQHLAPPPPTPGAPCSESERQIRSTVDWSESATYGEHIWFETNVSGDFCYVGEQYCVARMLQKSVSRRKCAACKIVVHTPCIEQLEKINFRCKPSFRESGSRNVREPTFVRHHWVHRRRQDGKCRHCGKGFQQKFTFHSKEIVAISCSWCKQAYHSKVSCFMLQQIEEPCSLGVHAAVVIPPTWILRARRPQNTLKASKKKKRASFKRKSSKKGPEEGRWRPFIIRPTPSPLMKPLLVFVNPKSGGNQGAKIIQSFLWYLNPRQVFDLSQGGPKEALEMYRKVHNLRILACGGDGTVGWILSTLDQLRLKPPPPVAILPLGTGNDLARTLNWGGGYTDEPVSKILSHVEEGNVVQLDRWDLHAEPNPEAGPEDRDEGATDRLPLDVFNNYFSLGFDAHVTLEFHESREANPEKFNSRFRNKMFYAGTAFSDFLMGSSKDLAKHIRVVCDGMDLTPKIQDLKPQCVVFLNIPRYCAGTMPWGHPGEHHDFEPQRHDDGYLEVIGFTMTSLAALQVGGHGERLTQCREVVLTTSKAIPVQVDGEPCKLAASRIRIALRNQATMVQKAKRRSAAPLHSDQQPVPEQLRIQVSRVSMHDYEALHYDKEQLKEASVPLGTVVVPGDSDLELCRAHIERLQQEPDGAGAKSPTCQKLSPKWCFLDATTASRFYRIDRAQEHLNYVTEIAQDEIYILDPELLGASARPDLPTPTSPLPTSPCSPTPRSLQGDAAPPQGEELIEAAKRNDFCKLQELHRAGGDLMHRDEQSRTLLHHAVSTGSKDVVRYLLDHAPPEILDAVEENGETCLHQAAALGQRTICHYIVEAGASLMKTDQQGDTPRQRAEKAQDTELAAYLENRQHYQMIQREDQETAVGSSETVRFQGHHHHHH
T2 sequence (P23743 other isoform, or with tags, fused parts or gaps): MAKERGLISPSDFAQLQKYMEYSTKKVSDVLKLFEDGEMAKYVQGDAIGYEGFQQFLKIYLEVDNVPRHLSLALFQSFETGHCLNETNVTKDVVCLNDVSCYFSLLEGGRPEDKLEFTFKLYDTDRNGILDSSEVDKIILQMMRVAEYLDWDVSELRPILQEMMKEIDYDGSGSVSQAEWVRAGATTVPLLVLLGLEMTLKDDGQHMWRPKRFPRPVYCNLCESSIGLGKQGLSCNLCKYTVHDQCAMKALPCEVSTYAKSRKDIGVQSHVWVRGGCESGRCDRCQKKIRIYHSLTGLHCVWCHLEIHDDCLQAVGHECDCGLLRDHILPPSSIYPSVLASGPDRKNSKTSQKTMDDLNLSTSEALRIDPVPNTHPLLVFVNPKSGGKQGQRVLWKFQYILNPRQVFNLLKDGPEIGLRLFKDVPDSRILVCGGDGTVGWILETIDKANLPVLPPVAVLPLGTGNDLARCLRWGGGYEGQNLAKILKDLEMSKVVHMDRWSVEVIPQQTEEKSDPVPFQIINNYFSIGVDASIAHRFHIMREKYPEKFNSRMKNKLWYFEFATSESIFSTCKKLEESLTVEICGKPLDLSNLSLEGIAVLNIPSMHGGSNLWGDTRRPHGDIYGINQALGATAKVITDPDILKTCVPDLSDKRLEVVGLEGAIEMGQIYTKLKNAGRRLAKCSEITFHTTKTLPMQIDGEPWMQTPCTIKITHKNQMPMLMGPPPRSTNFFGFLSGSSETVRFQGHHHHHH

Take `Cn1c(=O)c(C#N)c(N2CCN(Cc3ccccc3N)CC2)c2nc(Br)ccc21` [Example 211, 4-(4-(2-aminobenzyl)piperazin-1-yl)-6-bromo-1-methyl-2-oxo-1,2-dihydro-1,5-naphthyridine-3-carbonitrile]: the 50% inhibitory concentration (IC50) at human DGKζ [1] (setting [7]) is greater than 240000 nM; in experiment [2] it was 520 nM; on human DGKα [3], 250 nM.
On to `C#CCn1c(=O)c([N+](=O)[O-])c(N2CCN(C(C)c3ccc(F)cc3)CC2)c2nc(C#N)ccc21` (racemic) [Example 135, 8-(4-(1-(4-fluorophenyl)ethyl)piperazin-1-yl)-7-nitro-6-oxo-5-(prop-2-yn-1-yl)-5,6-dihydro-1,5-naphthyridine-2-carbonitrile], for which the 50% inhibitory concentration (IC50) at human DGKζ [1] (setting [7]) was determined as 1300 nM; in experiment [2], 340 nM; on human DGKα [3], 180 nM.
For the compound `C#CCn1c(=O)c([N+](=O)[O-])c(N2CCN(C(CC)c3ccc(F)cc3)CC2)c2nc(C#N)ccc21` (racemic) [Example 139, 8-{4-[1-(4-fluorophenyl)propyl]piperazin-1-yl}-7-nitro-6-oxo-5-(prop-2-yn-1-yl)-5,6-dihydro-1,5-naphthyridine-2-carbonitrile], the half-inhibitory concentration (IC50) on human DGKζ [1] (setting [7]) amounted to 910 nM; in experiment [2], 130 nM; at human DGKα [3] it was 410 nM.
As for `COCCn1c(=O)c([N+](=O)[O-])c(N2CCN(C(C)c3ccc(F)cc3)CC2)c2nc(C#N)ccc21` (racemic) [Example 148, 8-(4-(1-(4-fluorophenyl)ethyl)piperazin-1-yl)-5-(2-methoxyethyl)-7-nitro-6-oxo-5,6-dihydro-1,5-naphthyridine-2-carbonitrile], the IC50 at human DGKζ [1] (setting [7]) stood at 28000 nM; in experiment [2] it was 870 nM; on human DGKα [3], 15000 nM.
As for `Cn1c(=O)c(C#N)c(N2CCN(Cc3cccc(C(C)(C)C)c3O)CC2)c2nc(Cl)ccc21` [Example 384, 4-{4-[(3-tert-butyl-2-hydroxyphenyl)methyl]piperazin-1-yl}-6-chloro-1-methyl-2-oxo-1,2-dihydro-1,5-naphthyridine-3-carbonitrile], in experiment [2], the concentration for half-maximal inhibition (IC50) turned out to be 180 nM.
Turning to `COc1ccccc1C(c1ccc(F)cc1)N1CCN(c2c(C#N)c(=O)n(C)c3ccc(Br)nc23)CC1` (stereo not shown) [Example 12, 6-bromo-4-{4-[(4-fluorophenyl)(2-methoxyphenyl)methyl]piperazin-1-yl}-1-methyl-2-oxo-1,2-dihydro-1,5-naphthyridine-3-carbonitrile], the values for the IC50 (at human DGKζ [1] (setting [7]); in experiment [2]; at human DGKα [3]) were greater than 81000 nM, 580 nM and 1000 nM, respectively.
In the same order, the values of `Cn1c(=O)c(C#N)c(N2CCN(Cc3c(O)cccc3Cl)CC2)c2nc(Br)ccc21` [Example 390, 6-bromo-4-{4-[(2-chloro-6-hydroxyphenyl)methyl]piperazin-1-yl}-1-methyl-2-oxo-1,2-dihydro-1,5-naphthyridine-3-carbonitrile] are greater than 240000 nM, 800 nM and 870 nM.
For `CCC(c1ccc(F)cc1)N1CCN(c2c(C#N)c(=O)n(C)c3ccc(Br)nc23)CC1` (racemic) [Example 25, 6-bromo-4-{4-[1-(4-fluorophenyl)propyl]piperazin-1-yl}-1-methyl-2-oxo-1,2-dihydro-1,5-naphthyridine-3-carbonitrile], the values for the IC50 (on human DGKζ [1] (setting [7]); in experiment [2]; on human DGKα [3]) were greater than 81000 nM, 1150 nM and 41 nM, respectively.
As to `COCCn1c(=O)c(C#N)c(N2CCN(C(c3ccc(F)cc3)c3ccc(F)cc3)CC2)c2nc(Br)ccc21` [Example 113, 4-(4-(bis(4-fluorophenyl)methyl)piperazin-1-yl)-6-bromo-1-(2-methoxyethyl)-2-oxo-1,2-dihydro-1,5-naphthyridine-3-carbonitrile], in experiment [2], the half-inhibitory concentration (IC50) worked out at 580 nM.
On to `COCCn1c(=O)c(C#N)c(N2CCN(C(c3ccc(F)cc3)c3ccc(F)cc3OC)CC2)c2nc(Br)ccc21` (racemic) [Example 114, 6-bromo-4-(4-((4-fluoro-2-methoxyphenyl)(4-fluorophenyl)methyl)piperazin-1-yl)-1-(2-methoxyethyl)-2-oxo-1,2-dihydro-1,5-naphthyridine-3-carbonitrile], for which the results for the half-inhibitory concentration (IC50) (on human DGKζ [1] (setting [7]); in experiment [2]; on human DGKα [3]) were 100000 nM, 4120 nM and 120000 nM, respectively.
Turning to `Cn1c(=O)c(C#N)c(N2CCN(Cc3cccc4c3NC(=O)C4)CC2)c2nc(Br)ccc21` [Example 374, 6-bromo-1-methyl-2-oxo-4-{4-[(2-oxo-2,3-dihydro-1H-indol-7-yl)methyl]piperazin-1-yl}-1,2-dihydro-1,5-naphthyridine-3-carbonitrile], the IC50 in experiment [2] was 7930 nM.
`Cn1c(=O)c(C#N)c(N2CCN(Cc3cccc4c3NC(=O)C4)CC2)c2nc(Cl)ccc21` [Example 376, 6-chloro-1-methyl-2-oxo-4-{4-[(2-oxo-2,3-dihydro-1H-indol-7-yl)methyl]piperazin-1-yl}-1,2-dihydro-1,5-naphthyridine-3-carbonitrile]: the IC50 in experiment [2] is 10000 nM.
With `COc1c(F)cccc1CN1CCN(c2c(C#N)c(=O)n(C)c3ccc(Cl)nc23)CC1` [Example 274, 6-chloro-4-{4-[(3-fluoro-2-methoxyphenyl)methyl]piperazin-1-yl}-1-methyl-2-oxo-1,2-dihydro-1,5-naphthyridine-3-carbonitrile], the IC50 at human DGKζ [4] (setting [8]) was 5400 nM; at human DGKζ [1] (setting [7]), 30000 nM; against human DGKα [5], 1600 nM; at human DGKα [3], 670 nM; in experiment [6] (Homo sapiens, Raji), 72 nM.
With `Cn1c(=O)c(C#N)c(N2CCN(Cc3ccc(Br)cc3O)CC2)c2nc(C#N)ccc21` [Example 263, 8-{4-[(4-bromo-2-hydroxyphenyl)methyl]piperazin-1-yl}-5-methyl-6-oxo-5,6-dihydro-1,5-naphthyridine-2,7-dicarbonitrile], the half-maximal inhibitory concentration (IC50) at human DGKζ [4] (setting [8]) came to 5200 nM; on human DGKζ [1] (setting [7]), 14000 nM; against human DGKα [5] it was 220 nM; at human DGKα [3], 84 nM; in experiment [6] (Homo sapiens, Raji), 35 nM.
With `Cn1c(=O)c(C#N)c(N2CCN(Cc3ccc(Cl)c(O)c3)CC2)c2nc(C#N)ccc21` [Example 332, 8-{4-[(4-chloro-3-hydroxyphenyl)methyl]piperazin-1-yl}-5-methyl-6-oxo-5,6-dihydro-1,5-naphthyridine-2,7-dicarbonitrile], the IC50 on human DGKζ [4] (setting [8]) was 6500 nM; on human DGKζ [1] (setting [7]), 67000 nM; against human DGKα [5], 2500 nM; on human DGKα [3], 1100 nM; in experiment [6] (Homo sapiens, Raji), 530 nM.
`CCC(c1ccc(F)cc1)N1CCN(c2c(C#N)c(=O)n(CC#N)c3ccc(Br)nc23)CC1` (stereo not shown) [Example 155, 6-bromo-1-(cyanomethyl)-4-(4-(1-(4-fluorophenyl)propyl)piperazin-1-yl)-2-oxo-1,2-dihydro-1,5-naphthyridine-3-carbonitrile]: the IC50 on human DGKζ [4] (setting [8]) stood at 63000 nM; on human DGKζ [1] (setting [7]) it was 230000 nM; at human DGKα [5], 71000 nM; at human DGKα [3], 24000 nM; in experiment [6] (Homo sapiens, Raji) it was 1600 nM.
On to `Cn1c(=O)c(C#N)c(N2CCN(Cc3ccc(O)c(F)c3)CC2)c2nc(Cl)ccc21` [Example 357, 6-chloro-4-{4-[(3-fluoro-4-hydroxyphenyl)methyl]piperazin-1-yl}-1-methyl-2-oxo-1,2-dihydro-1,5-naphthyridine-3-carbonitrile], for which the half-inhibitory concentration (IC50) is 47000 nM on human DGKζ [4] (setting [8]); greater than 240000 nM on human DGKζ [1] (setting [7]); 85 nM against human DGKα [5]; 28 nM on human DGKα [3]; 5000 nM in experiment [6] (Homo sapiens, Raji).
For `CCC(c1ccc(F)cc1)N1CCN(c2c([N+](=O)[O-])c(=O)n(C)c3ccc(C#N)nc23)CC1` (single isomer, unassigned) [Example 34, 8-{4-[1-(4-fluorophenyl)propyl]piperazin-1-yl}-5-methyl-7-nitro-6-oxo-5,6-dihydro-1,5-naphthyridine-2-carbonitrile], the IC50 was 3400 nM against human DGKζ [4] (DGKζ LIPGLO IC50, extruded liposome substrate); 23000 nM against human DGKζ [1] (DGKζ IC50, detergent/lipid micelle substrate); 290 nM on human DGKα [5]; 180 nM on human DGKα [3]; 35 nM in experiment [6].

The term IC50 denotes the midpoint of a concentration-inhibition curve.
